These results are taken from US6878700B1, “Cell adhesion-inhibiting antiinflammatory and immune-suppressive compounds” (Abbott Laboratories, priority 1998, dated 2005).

Structures are written as SMILES. Counter-ions that a name gives are not always drawn.

What is called melting point is the temperature of the solid-liquid transition.

Assay in one series: not given
Conditions: not given
Take `O=C(O)C1CCCCN1C(=O)/C=C/c1ccc(Sc2ccc3c(c2)OCCO3)c([N+](=O)[O-])c1` (stereo not shown) [Example 220, (Benzodioxan-6-yl)[2-nitro-4-(E-((2-carboxypiperidin-1-yl)carbonyl)ethenyl)phenyl]sulfide]: the melting point is 165 °C (dec.).

As to `COC(=O)N1CCN(C(=O)/C=C/c2ccc(Sc3ccc4c(c3)OCCO4)c(C(F)(F)F)c2)C(C(=O)O)C1` (stereo not shown) [Example 271, (Benzodioxan-6-yl)[2-trifluoromethyl-4-(E-((2-carboxy-4-methoxycarbonylpiperazin-1-yl)carbonyl)ethenyl)phenyl]sulfide], the melting point was 102 °C (dec.). In turn, `CCOC(=O)C1CCCN(C(=O)/C=C/c2ccc(Sc3ccc4c(c3)OCCO4)c([N+](=O)[O-])c2)C1` (stereo not shown) [Example 197, (Benzodioxan-6-yl)[2-nitro-4-(E-((3-carboethoxypiperidin-1-yl)carbonyl)ethenyl)phenyl]sulfide] showed a melting point of 73 to 75 °C. For `CC(C)(C)OC(=O)N1CCN(C(=O)/C=C/c2ccc(Sc3ccc4c(c3)OCCO4)c([N+](=O)[O-])c2)CC1` [Example 205, (Benzodioxan-6-yl)[2-nitro-4-(E-((4-tert-butoxycarbonylpiperazin-1-yl)carbonyl)ethenyl)phenyl]sulfide], the melting point was in the range of 165 to 167 °C.

On to `O=C(O)CN1CCN(C(=O)/C=C/c2ccc(Sc3ccc4c(c3)OCCO4)c([N+](=O)[O-])c2)CC1` (as salt: salt) [Example 221, (Benzodioxan-6-yl)[2-nitro-4-(E-((4-carboxymethylpiperazin-1-yl)carbonyl)ethenyl)phenyl]sulfide], for which the melting point was 120 °C (dec.). The compound `CCOc1ccccc1Sc1ccc(/C=C/C(=O)N2CCCC(C(=O)O)C2)cc1Cl` (stereo not shown) [Example 155, (2-Ethoxyphenyl)-[2-chloro-4-(E-[(3-carboxypiperidin-1-yl)carbonyl]ethenyl)phenyl]sulfide] displayed a melting point of 166 to 171 °C. On the same count and under the same terms, the figure for `COC(=O)C1CN(C(=O)OC(C)(C)C)CCN1C(=O)/C=C/c1ccc(Sc2ccc3c(c2)OCCO3)c(C(F)(F)F)c1` (stereo not shown) [Example 253, (Benzodioxan-6-yl)[2-trifluoromethyl-4-(E-((2-carbomethoxy-4-tert-butoxycarbonylpiperazin-1-yl)carbonyl)ethenyl)phenyl]sulfide] is 85 to 87 °C; for `Nc1ccccc1Sc1ccc(/C=C/C(=O)N2CCOCC2)c(Cl)c1Cl` [Example 410, (2-Aminophenyl)[2,3-dichloro-4-(E-((4-morpholinyl)carbonyl)ethenyl)phenyl]sulfide] it is 230 to 240 °C (dec.); for `CCOc1ccccc1Sc1ccc(/C=C/C(=O)N2CCCCC2C(=O)O)cc1Cl` (stereo not shown) [Example 158, (2-Ethoxyphenyl)-[2-chloro-4-(E-[(2-carboxypiperidin-1-yl)carbonyl]ethenyl)phenyl]sulfide] it is 170 to 171 °C.

In the case of `O=C(O)C1CCCCN1C(=O)/C=C/c1ccc(Sc2ccc3c(c2)OCCO3)c(C(F)(F)F)c1` (stereo not shown) [Example 264, (Benzodioxan-6-yl)[2-trifluoromethyl-4-(E-((2-carboxypiperidin-1-yl)carbonyl)ethenyl)phenyl]sulfide], the melting point was 90 °C (dec.).

Turning to `CCOC(=O)C1CCCCN1C(=O)/C=C/c1ccc(Sc2ccc3c(c2)OCCO3)c([N+](=O)[O-])c1` (stereo not shown) [Example 203, (Benzodioxan-6-yl)[2-nitro-4-(E-((2-carboethoxypiperidin-1-yl)carbonyl)ethenyl)phenyl]sulfide], the melting point is 74 to 75 °C. With `O=C(O)C1CCN(C(=O)/C=C/c2ccc(Sc3ccc4c(c3)OCCO4)c(C(F)(F)F)c2)CC1` [Example 263, (Benzodioxan-6-yl)[2-trifluoromethyl-4-(E-((4-carboxypiperidin-1-yl)carbonyl)ethenyl)phenyl]sulfide], the melting point is 88 °C (dec.).

For the compound `COC(=O)C1CN(C(=O)/C=C/c2ccc(Sc3ccc4c(c3)OCCO4)c(C(F)(F)F)c2)CCN1C(=O)OC` (stereo not shown) [Example 269, (Benzodioxan-6-yl)[2-trifluoromethyl-4-(E-((3-carbomethoxy-4-methoxycarbonylpiperazin-1-yl)carbonyl)ethenyl)phenyl]sulfide], the melting point is 56 °C (dec.). Same read-out and setting: the figure for `COC(=O)C1CNCCN1C(=O)/C=C/c1ccc(Sc2ccc3c(c2)OCCO3)c(C(F)(F)F)c1` (stereo not shown) [Example 255, (Benzodioxan-6-yl)[2-trifluoromethyl-4-(E-((2-carbomethoxypiperazin-1-yl)carbonyl)ethenyl)phenyl]sulfide] is 70 to 72 °C.

The next series can be described thus: Water solubility of the isolated potassium salt. The class given is physicochemical. Conditions: solid obtained from the acid with KOH in MeOH (potassium salt). Here is the method:
The compound of Example 137 was hydrolyzed using an excess of aqueous 10% NaOH in methanol, stirring overnight. The reaction mixture was concentrated in vacuo, water was added, and the solution was extracted with ether. The mixture was acidified; the resultant solid was collected by filtration and dried overnight in a vacuum oven, giving a white solid, m.p. 166-171C. ^1H-NMR (DMSO 300 MHz) δ 1.17 (t, J=7 Hz, 3H), broad peaks totaling 9 protons at 1.32-1.48, 1.51-1.78, 1.90-2.04, 2.25-2.50, 2.80-2.90, 2.95-3.17, 3.45-3.51, 3.95-4.19, 4.41-4.51, 4.06 (q, J=7 Hz, 1H), 6.80 (d, J=9 Hz, 1H), 7.01 (t, J=7 Hz, 1H), 7.15 (d, J=8 Hz, 1H), 7.26-7.40 (m, 2H), 7.40-7.48 (m, 1H), 7.51 (dd, J=9 Hz, 2 Hz, 1H), 7.99 (d, J=9 Hz, 1H). Anal. Calcd. for C23H24ClNO4S: C, 61.94; H, 5.42; N, 3.14. Found: C, 61.75; H, 5.65; N, 3.15. The resultant acid (303 mg, 0.631 mmol) was dissolved in 3 mL MeOH. A KOH solution (38 mg, 0.595 mmol, of 87.6% KOH) in 1 ml MeOH was added. The resulting solution was concentrated in vacuo, and 5 mL ether was added. The mixture was stirred for one hour to form a powder, which was filtered and dried in the vacuum oven at 60C to yield 307 mg of a solid, water soluble product. […]
Turning to `CCOc1ccccc1Sc1ccc(/C=C/C(=O)N2CCCC(C(=O)O)C2)cc1Cl` (stereo not shown) [Example 155, (2-Ethoxyphenyl)-[2-chloro-4-(E-[(3-carboxypiperidin-1-yl)carbonyl]ethenyl)phenyl]sulfide], the solubility in water result is recorded as “water soluble”. Turning to `CCOc1ccccc1Sc1ccc(/C=C/C(=O)N2CCCC(C(=O)O)C2)c(Cl)c1Cl` (stereo not shown) [Example 343], the solubility in water result is “water-soluble”.
